The values that follow come from patent US8658131B2, “Compounds comprising 4-benzoylpiperidine as a sigma-1-selective ligand” (Washington University, priority 2010, dated 2014).

For data set [1], the target named is T1, VAChT (Homo sapiens, UniProt Q16572).
T1 sequence (Q16572 1-532): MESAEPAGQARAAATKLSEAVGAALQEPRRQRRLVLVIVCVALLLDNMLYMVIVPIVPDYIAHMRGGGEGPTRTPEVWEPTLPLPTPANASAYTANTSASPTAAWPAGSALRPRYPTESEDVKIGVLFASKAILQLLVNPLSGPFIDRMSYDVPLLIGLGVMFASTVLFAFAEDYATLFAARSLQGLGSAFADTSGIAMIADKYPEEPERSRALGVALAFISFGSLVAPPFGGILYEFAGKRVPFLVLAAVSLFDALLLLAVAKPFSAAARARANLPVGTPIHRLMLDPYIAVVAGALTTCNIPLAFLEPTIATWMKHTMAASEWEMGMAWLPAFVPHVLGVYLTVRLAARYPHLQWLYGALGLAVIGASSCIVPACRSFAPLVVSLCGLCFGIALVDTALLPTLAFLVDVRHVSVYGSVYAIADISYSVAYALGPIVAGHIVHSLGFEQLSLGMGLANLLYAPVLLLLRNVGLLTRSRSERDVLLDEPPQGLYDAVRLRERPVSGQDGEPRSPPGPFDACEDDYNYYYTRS
As to conditions: previous study; cited from earlier work.

In data set [2] the target is σ1 receptor (Homo sapiens, UniProt Q99720). As to conditions: prior art ligands of FIG. 1; read-out: σ1 receptor binding affinity; cited from earlier work.
σ1 receptor (Homo sapiens, UniProt Q99720), sequence (Q99720 whole entry, species assumed): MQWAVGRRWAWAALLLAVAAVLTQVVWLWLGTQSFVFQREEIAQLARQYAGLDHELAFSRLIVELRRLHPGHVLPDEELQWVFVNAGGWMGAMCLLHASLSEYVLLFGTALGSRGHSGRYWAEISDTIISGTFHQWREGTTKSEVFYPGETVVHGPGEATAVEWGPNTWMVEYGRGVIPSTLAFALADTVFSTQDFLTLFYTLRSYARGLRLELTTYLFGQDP
Data set [3] deals with T2, σ1 receptor (Cavia porcellus, UniProt Q60492).
T2 construct: using guinea pig brain membrane homogenates; from tissue; host or cells: guinea pig brain membrane homogenates
T2 sequence (Q60492 whole entry): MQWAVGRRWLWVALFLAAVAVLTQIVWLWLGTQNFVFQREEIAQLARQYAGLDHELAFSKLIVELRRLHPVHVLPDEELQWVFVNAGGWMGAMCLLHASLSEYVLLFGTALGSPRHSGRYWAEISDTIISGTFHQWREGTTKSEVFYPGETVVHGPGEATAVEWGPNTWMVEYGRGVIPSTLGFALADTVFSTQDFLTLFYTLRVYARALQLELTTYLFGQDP
Nature of the data set: σ1 receptor binding assay, (+)-[3H]pentazocine, guinea pig brain membranes. To be noted: Table 4, Ki values of VAChT specific compounds; tissue not given; read-out: Sigma-1 σ1.

The target in data set [4] is T3, human vesicular acetylcholine transporter (VAChT) (Homo sapiens, UniProt Q16572).
T3 construct: expressed in transfected cells; host or cells: PC12 A123.7 cells (crude extract / homogenized, partially clarified cells)
T3 sequence (Q16572 1-532): T1 sequence (Q16572 1-532)
The data set is described as follows: VAChT binding assay, (−)-[3H]vesamicol, human VAChT expressed in PC12 cells. To be noted: Table 4, Ki values of VAChT specific compounds; source not given; read-out: VAChT.

Data set [5] concerns the target T4, σ2 receptor (Rattus norvegicus, UniProt Q5U3Y7).
T4 sequence (Q5U3Y7 1-176): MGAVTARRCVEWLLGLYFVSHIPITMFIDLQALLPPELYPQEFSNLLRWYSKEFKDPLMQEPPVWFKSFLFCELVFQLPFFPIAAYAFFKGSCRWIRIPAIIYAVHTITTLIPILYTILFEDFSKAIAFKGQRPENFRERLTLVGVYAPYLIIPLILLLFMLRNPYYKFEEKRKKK
Nature of the data set: σ2 receptor binding assay, [3H]DTG, rat liver membrane homogenates. Also on record: conducted using rat liver membrane homogenates; from tissue; host or cells: rat liver membrane homogenates. To be noted: Table 4, Ki values of VAChT specific compounds; tissue not given; read-out: Sigma-2 σ1.

The target in data set [6] is T5, σ1 receptors (Rattus norvegicus, UniProt Q9R0C9).
T5 construct: tested in rat brain and in guinea pig membranes, respectively; from tissue; host or cells: rat brain
T5 sequence (Q9R0C9 whole entry): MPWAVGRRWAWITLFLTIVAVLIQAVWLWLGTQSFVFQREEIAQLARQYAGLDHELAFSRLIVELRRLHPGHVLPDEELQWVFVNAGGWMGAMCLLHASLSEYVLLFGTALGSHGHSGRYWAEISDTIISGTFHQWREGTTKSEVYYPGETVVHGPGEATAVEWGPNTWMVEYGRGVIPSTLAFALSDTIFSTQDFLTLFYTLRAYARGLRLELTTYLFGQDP
Nature of the data set: σ1 binding of Table 5 compounds.

For data set [7], the target named is T6, VAChT (Tetronarce californica, UniProt P81721).
T6 construct: using highly purified Torpedo synaptic vesicles; from tissue
T6 sequence (P81721 1-515): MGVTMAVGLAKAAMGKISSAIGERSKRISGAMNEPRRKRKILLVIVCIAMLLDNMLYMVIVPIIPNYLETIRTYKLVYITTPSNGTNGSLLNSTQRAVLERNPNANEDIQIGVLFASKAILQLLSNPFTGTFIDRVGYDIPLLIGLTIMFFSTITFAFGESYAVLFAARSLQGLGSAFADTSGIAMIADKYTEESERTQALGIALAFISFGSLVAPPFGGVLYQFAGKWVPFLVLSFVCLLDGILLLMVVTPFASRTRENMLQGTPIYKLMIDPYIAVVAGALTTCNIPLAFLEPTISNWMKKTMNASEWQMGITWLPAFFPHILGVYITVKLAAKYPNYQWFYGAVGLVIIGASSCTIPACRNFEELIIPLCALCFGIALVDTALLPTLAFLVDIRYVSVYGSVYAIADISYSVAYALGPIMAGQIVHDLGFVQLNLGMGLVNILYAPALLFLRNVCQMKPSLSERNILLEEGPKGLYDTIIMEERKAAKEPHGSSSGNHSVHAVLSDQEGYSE
The data set is described as follows: biochemical. Format: binding.

In data set [8] the target is T4, σ2 receptor. The data set is described as follows: σ2 binding of Table 5 compounds. Also on record: species or system guinea pig. To be noted: read-out: σ2 Ki (nM) ± SEM; Table 6. As to the method:
Compounds were tested for VAChT binding using highly purified Torpedo synaptic vesicles. The σ1 and σ2 binding affinities were tested in rat brain and in guinea pig membranes, respectively. Structures and Equilibrium binding constants (Ki) are reported in Table 5 and Table 6, respectively. As in previous studies, we define ligand selectivity in terms of a selectivity index which is calculated as Ki (σ1 or σ2)/Ki (VAChT).
Consequently, we also screened the target compounds for sigma binding to identify selective VAChT ligands from this new structural class of agents.

A short description of data set [9]: Biodistribution of [11C]14e in mice. It counts as in vivo. Here is the method: (§1) Radiosynthesis of [^11C] […] Tissue samples were taken and converted to % ID/g for each organ. Ex vivo autoradiography studies were also conducted in mice at 30 min post-injection of the radiotracer. A microPET imaging study was also performed on a male cynomolgus monkey.
For data set [10], the target named is T7, σ1 receptors (Mus musculus, UniProt O55242).
T7 construct: Ex vivo autoradiography studies were also conducted in mice; from tissue; host or cells: mouse brain (living animal, ex vivo autoradiography)
T7 sequence (O55242 whole entry): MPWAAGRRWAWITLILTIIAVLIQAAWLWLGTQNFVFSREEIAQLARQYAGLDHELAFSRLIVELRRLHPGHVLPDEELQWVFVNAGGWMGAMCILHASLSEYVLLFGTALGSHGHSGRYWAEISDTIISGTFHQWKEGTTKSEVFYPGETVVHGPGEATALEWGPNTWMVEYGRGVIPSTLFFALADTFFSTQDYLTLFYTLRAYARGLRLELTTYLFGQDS
The data set is described as follows: Ex vivo autoradiography of [11C]14e in mice. As to conditions: 30 min post-injection. As to the method: as §1

Structures can show the parent of a compound that is named as a salt.

In the case of `O=C(c1ccc([18F])cc1)C1CCN(C2Cc3ccccc3CC2O)CC1` (racemic) [FBBV, (±)-trcms-2-Hydroxy-3-(4-(4-[^18F]fluorobenzoyDpiperidino)tetralin], the Ki in data set [1] was 2.7 nM.

As for `Cc1ccc(C2CCN(C3CCCCC3O)CC2)cc1` (single isomer, unassigned; (-)) [(−)-p-methylvesamicol], the Ki in data set [2] was 8.1 nM.

Take `OC1CCCCC1N1CCC(c2ccccc2)CC1` (single isomer, unassigned; (-)) [(−)-vesamicol, (−)-trans-2-(4-phenylpiperidino)cyclohexanol]: the Ki in data set [2] is 73.5 nM.

Regarding `O[C@H]1CCCC[C@@H]1N1CCC(c2ccc(I)s2)CC1` [(1S,2S)-2-(4-(5-iodothiophen-2-yl)piperidin-1-yl)cyclohexanol], in [2], the Ki was 9.39 nM.

For the molecule `COc1ccc(C(=O)C2CCN(C3Cc4c(N)cccc4CC3O)CC2)cn1` (centres unmarked) [OS-5-82, (1-(8-Amino-3-hydroxy-1,2,3,4-tetrahydronaphthalen-2-yl)piperidin-4-yl)(6-methoxypyridin-3-yl)methanone oxalate], the Ki is 5.682 ± 0.026 µM in [3]; 23.3 ± 3.43 nM in [4]; 10.8 ± 1.28 µM in data set [5]; 5.682 ± 0.026 µM in data set [6]; 48 ± 11.4 nM in data set [7]; 10800 ± 1280 nM in data set [8]. In [7] (in words), the VAChT/σ selectivity entry is listed as “moderate or high”. The molecule also yielded a σ1/VAChT in data set [7] (selectivity index Ki (σ1)/Ki (VAChT)) of 118.4. Also, the σ2/VAChT in [7] (selectivity index Ki (σ2)/Ki (VAChT)) worked out at 225.3.

In the case of `[11CH3]Oc1ccc(C(=O)C2CCN([C@@H]3CCN(Cc4ccc(F)cc4)C[C@H]3O)CC2)cc1` [[^11C]14e, ((3′R,4′R)-1′-(4-fluorobenzyl)-3′-hydroxy-1,4′-bipiperidin-4-yl)(4-[^11C]methoxyphenyl)methanone], in [9] (5 min post-injection), the “regional brain uptake, cerebellum” value stood at 6.34±0.05 % ID/g; the “regional brain uptake, cortex” value came to 6.69±0.72 % ID/g; the “regional brain uptake, hippocampus” value was 5.41±0.30 % ID/g; the “regional brain uptake, striatum” value was determined as 6.63±0.56 % ID/g. In addition, in data set [9] (high between 5 and 30 min, washed out between 30 and 60 min), the clearance from brain result is on record as “suitable clearance from brain”. Moreover, the “distribution in brain by autoradiography” value in data set [10] is reported as “consistent with the distribution of σ1 receptors in brain”.

Consider `OC1CN(Cc2cccc(I)c2)CCC1N1CCC(c2ccccc2)CC1` (centres unmarked) [meta-iodobenzyltrozamicol], for which the Ki in data set [2] was 92 nM.
